Patent US8883962B2, “Zinc-responsive peptides, and methods of use thereof” (Massachusetts Institute of Technology, priority 2012, dated 2014)
pKd: −log10 of the molar value. Values joined by “and” are separate entries in the source; they are usually repeats but may differ in a detail not shown here. Equal values may be shown once. Where a name gives a salt, the structure may show the parent alone. The star is where a group is joined. ZP1 = ZinPyr-1 zinc sensor: fluorescein platform with two dipicolylamine metal-binding arms, attached via its 6-CO2H; Palmitoyl = CCCCCCCCCCCCCCCC(=O)*

Key:
[1] = 50 mM PIPES buffer (pH 7), 100 mM KCl; read-out: Kd-Zn (known); cited from earlier work
[2] = in 0.1 M H2SO4; cited from earlier work
[3] = Photophysical characterization (absorbance, emission, quantum yield) without and with zinc; assay type: physicochemical; details: 25 mM PIPES (pH 7), 50 mM KCl
Method: To investigate whether the zinc-sensing properties of the ZP1 moiety withstood the conditions of SPPS, we studied the zinc-binding and photophysical properties of Palm-ZP1 in vitro. Due to the hydrophobic palmitoyl moiety, we used a mixed solvent system consisting of 25 mM PIPES buffer (pH 7) with 50 mM KCl and 50% acetonitrile (v/v). In the absence of zinc, Palm-ZP1 has spectral features that are similar to those of other ZP1 derivatives. Apo Palm-ZP1 has a λabs=518 nm and λem=534 nm (φapo=0.16±0.05) (FIG. 24 and FIG. 29). Addition of ZnCl2 to a solution of Palm-ZP1 produced a characteristic blue-shift in absorption and emission spectra (λabs=505 nm; λem=527 nm) and an enhancement of fluorescence (φZn=0.79±0.05) (FIG. 16a).
ZQ-MPP was prepared manually using standard solid phase methodology. […] In the absence of zinc, ZQ-MPP has two main absorption bands with maxima at λabs=243 and 336 nm (FIG. 26), and is essentially non-emissive (φ≦0.002). Addition of ZnCl2 gives rise to two new features in the absorption spectrum (λabs=264 and 358 nm), and a large increase (>100-fold; φ=0.36±0.01) in fluorescence intensity (λem=484 nm, FIG. 16b, 26, and Table 30).
Spectroscopic measurements for Palm-ZP1 were carried out in a mixed solvent system consisting of 25 mM PIPES buffer (pH 7) with 50 mM KCl and 50% acetonitrile (v/v) (FIG. 24). Except where noted, all fluorescence data were obtained by exciting at 495 nm and observing from 500-650 nm, with 0.1 sec integration time and slit widths of 0.4 mm (1.6 nm). Emission spectra represent the average of three scans. The quantum yield of Palm-ZP1 was referenced to fluorescein in 0.1 M NaOH(aq), which has a known quantum yield of φ=0.95. Lakowicz, J. R. Principles of fluorescence spectroscopy; 2nd ed.; Kluwer Academic/Plenum: New York, 1999.
Characterization of ZQ-MPP (FIG. 26) was performed in 25 mM PIPES buffer (pH 7) with 50 mM KCl, and 50% (v/v) acetonitrile. Zinc affinities (Kd-Zn) were compared to TSQ under identical conditions (FIG. 27 and FIG. 30). Quantum yields for ZQ-MPP and TSQ were reference to quinine sulfate in 0.1 M H2SO4, which has a known quantum yield of (I)=0.58. Eastman, J. W. Photochem. Photobio. 1967, 6, 55.

[4] = Apparent zinc-binding affinity (Kd-Zn) by fluorescence titration in buffered zinc solution; details: CaEDTA buffered solution, 25 mM PIPES (pH 7), 50 mM KCl, 50% acetonitrile
Method: Apparent zinc-binding affinities (Kd-Zn) were determined by a modified literature procedure. Walkup, G. K.; et al. J. Am. Chem. Soc. 2000, 122, 5644. For each zinc-binding titration, 1 mM EDTA and 2 mM CaCl2 were added to the MeCN/PIPES buffered solution. Palm-ZP1 or ZP1 was added, and the system was allowed to reach equilibrium (30 min). Aliquots of ZnCl2 were successively added, and the emission spectra recorded once the emission spectrum stabilized (˜30 min). The amount of free zinc for a given concentration of total zinc was calculated using the maxchelator program (http://maxchelator.stanford.edu/webmaxc/webmaxcS.htm) based on initial values of 1 mM EDTA, 2 mM CaCl2, an ionic strength of I=0.05 mol dm^−3, and a pH of 7.0. Due to the addition of acetonitrile to the buffered solution, we compared the apparent Kd-Zn for Palm-ZP1 to ZP1 under identical conditions (FIG. 25 and FIG. 29).
Apparent zinc-binding affinities (Kd-Zn) were determined using a modified literature procedure. Fahrni, C. J.; et al. J. Am. […] Aliquots of ZnCl2 were successively added, and the emission spectra recorded once the emission spectrum stabilized (˜30 min). The amount of free zinc for a given concentration of total zinc was calculated using the maxchelator program (http://maxchelator.stanford.edu/webmaxc/webmaxcS.htm) based on initial values of 2 mM EGTA at an ionic strength of I=0.05 mol dm^−3 and a pH of 7.0. […]

HeLa cells [5] = experiment: Live cell imaging of zinc-induced fluorescence turn-on; assay type: cell-based
Method: To assess the ability of Palm-ZP1 to function within a cellular environment, we conducted live cell imaging experiments. HeLa cells were incubated with a 10 μM solution of Palm-ZP1 in Dulbecco's Modified Eagle Medium (DMEM) for 30 min (37° C., 5% CO2) prior to imaging. Initial cell images had minimal ZP1 emission, consistent with the low quantum yield for the apo form of the sensor. […] Subsequent addition of 100 μM EDTA, a cell-impermeable chelator, attenuated the fluorescent signal to initial levels within 5 min, further confirming that the zinc-induced fluorescence increase occurs extracellularly.
(§1) We carried out live cell imaging experiments to determine whether ZQ-MPP could target mitochondria and report on changes in zinc concentrations. HeLa cells were pretreated with a 25 μM solution of ZQ-MPP, which also contained MitoTracker Red as an internal mitochondria tracker (see later examples). […] The localization of ZQ-MPP was investigated with multichannel fluorescence microscopy. Visually, the distribution of MitoTracker Red (FIG. 19b) and ZQ-MPP (FIG. 19c) appear nearly identical. Overlaying the images (FIG. 19d) and calculating the Pearson's correlation coefficient yields an r=0.71±0.01, indicating strong colocalization.
HeLa cells were cultured at 37° C. under a 5% CO2 humidified atmosphere in Dulbecco's Modified Eagle Medium (High Glucose DMEM, Invitrogen) supplemented with 10% fetal bovine serum (FBS, HyClone), penicillin (100 μg/mL), and streptomycin (100 μg/mL). For live cell imaging, cells were seeded in 35-mm poly-D-Lys coated glass-bottom culture dishes (MatTek Corporation).
Palm-ZP1 (10 μM) was incubated for 30 min at 37° C. and 5% CO2 in DMEM. For multichannel imaging and co-localization studies, staining of the plasma membrane was accomplished by addition of Cell Mask Orange (Life Technologies, final concentration 2.5 μg/mL) for 15-20 min. Prior to imaging, cells were rinsed with warm dye- and serum-free DMEM (2×2 mL) and bathed in warm dye- and serum-free DMEM (2 mL). To assess the zinc responsiveness of Palm-ZP1, stock solutions of ZnCl2 (10 mM) were diluted in warm dye- and serum-free DMEM to a final ZnCl2 concentration of 50 μM. The zinc-enriched media was exchanged in the cell culture dish directly on the microscope stage. […]
(§2) The imaging experiments were performed using a Zeiss Axiovert 200M inverted epifluorescence microscope equipped with an EM-CCD digital camera (Hamamatsu) and a MS200 XY Piezo Z stage (Applied Scientific Instruments). The light source was an X-Cite 120 metal-halide lamp (EXFO) and the fluorescence images were obtained using an oil-immersion objective at 63× magnification. […]

HeLa cells [6] = experiment: Localization study in live cells by multichannel fluorescence microscopy (Pearson's correlation coefficient); assay type: cell-based
Method: We next explored whether Palm-ZP1 selective accumulates in the plasma membrane. […] Quantitative image analysis corroborated these findings: Palm-ZP1 and Cell Mask Orange strongly co-localize with a Pearson's correlation coefficient of r=0.70±0.05.
as §1
Palm-ZP1 (10 μM) was incubated for 30 min at 37° C. and 5% CO2 in DMEM. For multichannel imaging and co-localization studies, staining of the plasma membrane was accomplished by addition of Cell Mask Orange (Life Technologies, final concentration 2.5 μg/mL) for 15-20 min. Prior to imaging, cells were rinsed with warm dye- and serum-free DMEM (2×2 mL) and bathed in warm dye- and serum-free DMEM (2 mL). […]
as §2
To calculate r, images were first deconvoluted using a calculated point-spread function (PSF) map based on emission wavelength, refractive index of the media (n=1.518), and the numerical aperture (1.4). Deconvoluted channels (i.e., sensor and organelle trackers) were merged and analyzed. For each image, a minimum of three regions-of-interest (ROI) were selected and the r-value calculated using an ImageJ plugin. […]

Compound: O=C1OC2(c3ccccc31)c1cc(Cl)c(O)c(CN(Cc3ccccn3)Cc3ccccn3)c1Oc1c2cc(Cl)c(O)c1CN(Cc1ccccn1)Cc1ccccn1 [ZP1]
- pKd [1]: 9.15

Compound: C=C[C@H]1C[N@@]2CC[C@H]1C[C@H]2[C@H](O)c1ccnc2ccc(OC)cc12 [quinine sulfate]
- known quantum yield (reference standard) [2]: 0.58

Compound: Palmitic acid-PPPDDK(ZPI)-CONH2 (Palmitoyl-PPPDDK(ZP1)-NH2; not fully specified) [Palm-ZP1]
- quantum yield φ, absence of zinc (apo) ([3]; 50% acetonitrile (v/v)): 0.16±0.05
- quantum yield φ, zinc-bound ([3]; 50% acetonitrile (v/v)): 0.79±0.05
- λabs after addition of ZnCl2 ([3]; 50% acetonitrile (v/v)): 505 nm
- λabs, absence of zinc (apo) ([3]; 50% acetonitrile (v/v)): 518 nm
- λem after addition of ZnCl2 ([3]; 50% acetonitrile (v/v)): 527 nm
- λem, absence of zinc (apo) ([3]; 50% acetonitrile (v/v)): 534 nm
- Kd-Zn compared with ZP1 [4]: closely approximates the Kd-Zn of ZP1
- increase in ZP1 fluorescence intensity at the peripheral membrane (HeLa cells [5]; 10 μM probe, addition of 50 μM ZnCl2, no ionophore): ~1.7 fold
- time for fluorescent signal to be attenuated to initial levels (HeLa cells [5]; addition of 100 μM EDTA): ≤ 5 min
- Pearson's correlation coefficient r with Cell Mask Orange (plasma membrane) (HeLa cells [6]): 0.70±0.05
- localization in cells (HeLa cells [6]; multichannel fluorescence microscopy): preferentially localize to the plasma membrane

Compound: zinquin-FxrFxrFxr-CONH2 [ZQ-MPP]
- quantum yield φ, absence of zinc (apo) ([3]; 50% acetonitrile (v/v)): ≤ 0.002
- quantum yield φ, zinc-bound ([3]; 50% acetonitrile (v/v)): 0.36±0.01
- λabs after addition of ZnCl2 ([3]; 50% acetonitrile (v/v)): 264 nm and 358 nm
- λabs, absence of zinc (apo) ([3]; 50% acetonitrile (v/v)): 243 nm and 336 nm
- λem after addition of ZnCl2 ([3]; 50% acetonitrile (v/v)): 484 nm
- increase in fluorescence intensity upon addition of ZnCl2 ([3]; in vitro, 50% acetonitrile): > 100 fold
- increase in ZQ-MPP intensity (HeLa cells [5]; 25 μM probe, addition of 50 μM zinc/pyrithione): ~15 fold
- signal after addition of zinc chelator (HeLa cells [5]; addition of 100 μM TPEN): returned to near baseline levels
- Pearson's correlation coefficient r with MitoTracker Red (mitochondria) (HeLa cells [6]): 0.71±0.01
